Holding throughout (format): cell-based
Experiment [1] deals with T1, human NMUR2 receptor (Homo sapiens, UniProt Q9GZQ4). Nature of the experiment: IP1 Gq HTRF assay, activation of human NMUR2 in human plasma. Also noted: expressed in transfected cells; host or cells: CHO-K1. The settings on record: CHO-K1 cells expressing human NMUR2, 100% human plasma; read-out: EC50 (hNMUR2) human plasma. The method, boiled down: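 CHO-K1 cells stably expressing human NMUR2 exposed to peptide agonists (8-point dose-response) in 100% human plasma with 50 mM LiCl, 1% DMSO, for 1 h at 37° C. IP1 accumulation read by HTRF competition (665/620 nm ratio). EC50 from 4-parameter sigmoidal fit.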
T1 sequence (Q9GZQ4 whole entry): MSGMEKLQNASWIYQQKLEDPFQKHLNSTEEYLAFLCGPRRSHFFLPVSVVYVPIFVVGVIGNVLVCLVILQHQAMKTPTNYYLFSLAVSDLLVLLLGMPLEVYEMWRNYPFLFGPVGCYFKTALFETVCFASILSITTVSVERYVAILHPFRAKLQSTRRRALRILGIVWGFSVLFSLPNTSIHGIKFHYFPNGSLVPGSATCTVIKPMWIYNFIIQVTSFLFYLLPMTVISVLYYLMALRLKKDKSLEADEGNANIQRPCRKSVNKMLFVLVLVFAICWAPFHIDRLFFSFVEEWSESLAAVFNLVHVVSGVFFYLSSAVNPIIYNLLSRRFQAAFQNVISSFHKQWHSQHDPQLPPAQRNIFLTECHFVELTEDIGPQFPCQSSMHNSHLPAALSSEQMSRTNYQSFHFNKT

In another experiment the target is T2, human NMUR1 receptor (Homo sapiens, UniProt Q9HB89).
T2 construct: expressed in transfected cells; host or cells: CHO-K1
T2 sequence (Q9HB89 1-426): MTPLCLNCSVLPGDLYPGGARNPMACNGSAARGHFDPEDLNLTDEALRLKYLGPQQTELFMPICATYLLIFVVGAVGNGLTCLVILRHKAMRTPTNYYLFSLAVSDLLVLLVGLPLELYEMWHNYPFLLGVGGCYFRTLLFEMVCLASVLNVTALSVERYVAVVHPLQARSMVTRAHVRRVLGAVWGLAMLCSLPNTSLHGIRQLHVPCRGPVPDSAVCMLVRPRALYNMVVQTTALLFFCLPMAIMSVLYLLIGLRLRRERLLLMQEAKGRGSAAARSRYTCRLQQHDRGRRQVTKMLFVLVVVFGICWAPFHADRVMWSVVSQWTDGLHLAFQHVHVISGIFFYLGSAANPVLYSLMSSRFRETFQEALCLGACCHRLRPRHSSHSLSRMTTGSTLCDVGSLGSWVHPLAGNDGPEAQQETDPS
Nature of the experiment: IP1 Gq HTRF assay, activation of human NMUR1 in buffer. The settings on record: CHO-K1 cells expressing human NMUR1, stimulation buffer with 0.1% BSA; read-out: EC50 (hNMUR1) buffer. The method, boiled down: (§1)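 CHO-K1 cells stably expressing human NMUR1 or NMUR2, seeded 24 h before assay, stimulated with peptide agonists (8-point dose-response, 1% DMSO final) in HEPES/HBSS buffer with 50 mM LiCl and 0.1% BSA, pH 7.4, 1 h at 37 °C. IP1 accumulation read by HTRF competition (665/620 nm); EC50 from 4-parameter sigmoidal fit.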

For experiment [2], the target named is T1, human NMUR2 receptor. Description: IP1 Gq HTRF assay, activation of human NMUR2 in buffer. Also noted: expressed in transfected cells; host or cells: CHO-K1. Particulars: CHO-K1 cells expressing human NMUR2, stimulation buffer with 0.1% BSA; read-out: EC50 (hNMUR2) buffer. The method, boiled down: as §1

Each structure is given as a SMILES string. Starred links: 1 amine or outer side, 2 acyl side, 3 side chain; linkers in the order of their positions; H or OH if unused. Non-standard residues stand in square brackets, D forms with d. Residues, ends and D or L forms follow the SMILES beside them. *: point of attachment. Pipz(1-CH2CO,4-CH2CH2NH) = O=C(CN1CCN(CCN[*:1])CC1)[*:2]; C18 diacid = O=C(O)CCCCCCCCCCCCCCCCC(=O)*; γGlu = O=C(O)[C@H](CCC(=O)[*:2])N[*:1]; 2Pal = N[C@@H](Cc1ccccn1)C(=O)O; 4Pal = N[C@@H](Cc1ccncc1)C(=O)O; NMeL = CN[C@@H](CC(C)C)C(=O)O; NMeA = CN[C@@H](C)C(=O)O; Nle = CCCC[C@H](N)C(=O)O; Sar = CNCC(=O)O

In the case of `CCCC[C@H](NC(=O)[C@H](CC(C)C)N(C)C(=O)[C@H](Cc1ccccc1)NC(=O)[C@H](Cc1ccc(O)cc1)NC(=O)CN1CCN(CCNC(=O)CN(C)C(=O)CN(C)C(=O)CN(C)C(=O)CN(C)C(=O)CN(C)C(=O)CN(C)C(=O)CN(C)C(=O)CN(C)C(=O)CN(C)C(=O)CN(C)C(=O)CN(C)C(=O)CN(C)C(=O)CC[C@H](NC(=O)CC[C@H](NC(=O)CC[C@H](NC(=O)CC[C@H](NC(=O)CCCCCCCCCCCCCCCCC(=O)O)C(=O)O)C(=O)O)C(=O)O)C(=O)O)CC1)C(=O)N[C@@H](CCN)C(=O)N1CCC[C@H]1C(=O)N[C@@H](CCCNC(=N)N)C(=O)NCC(N)=O` [Compound 41, C18DA-gGlu4-Sar12-AEPipAc-Tyr-Phe-NMeLeu-Nle-Dbu-Pro-Arg-Gly-NH2], the EC50 on human NMUR2 receptor [1] is 0.0122 µM; on human NMUR1 receptor it was 1.3 µM; on human NMUR2 receptor [2] it was 0.002 µM.
As for `CCCC[C@H](NC(=O)[C@H](CC(C)C)N(C)C(=O)[C@H](Cc1ccccc1)NC(=O)[C@H](Cc1ccc(O)cc1)NC(=O)CN1CCN(CCNC(=O)CN(C)C(=O)CN(C)C(=O)CN(C)C(=O)CN(C)C(=O)CN(C)C(=O)CN(C)C(=O)CN(C)C(=O)CN(C)C(=O)CN(C)C(=O)CC[C@H](NC(=O)CC[C@H](NC(=O)CCCCCCCCCCCCCCCCC(=O)O)C(=O)O)C(=O)O)CC1)C(=O)N[C@@H](CCCN)C(=O)N(C)[C@@H](C)C(=O)N[C@@H](CCCNC(=N)N)C(=O)NCC(N)=O` [Compound 44, C18DA-gGlu2-Sar9-AEPipAc-Tyr-Phe-NMeLeu-Nle-Orn-NMeAla-Arg-Gly-NH2] (HELM PEPTIDE1{[O=C(O)CCCCCCCCCCCCCCCCC(=O)[*:2]].[gGlu].[gGlu].[Sar].[Sar].[Sar].[Sar].[Sar].[Sar].[Sar].[Sar].[Sar].[O=C(CN1CCN(CCN[*:1])CC1)[*:2]].Y.F.[meL].[Nle].[Orn].[meA].R.G.[am]}$$$$V2.0), the 50% effective concentration (EC50) was 0.0205 µM on human NMUR2 receptor [1], greater than 1 µM at human NMUR1 receptor and 0.0022 µM at human NMUR2 receptor [2].
`CCCC[C@H](NC(=O)[C@H](CC(C)C)N(C)C(=O)[C@H](Cc1ccccc1)NC(=O)[C@H](Cc1ccc(O)cc1)NC(=O)CN1CCN(CCNC(=O)CN(C)C(=O)CN(C)C(=O)CN(C)C(=O)CN(C)C(=O)CN(C)C(=O)CN(C)C(=O)CN(C)C(=O)CN(C)C(=O)CN(C)C(=O)CN(C)C(=O)CN(C)C(=O)CN(C)C(=O)CN(C)C(=O)CN(C)C(=O)CN(C)C(=O)CC[C@H](NC(=O)CC[C@H](NC(=O)CC[C@H](NC(=O)CCCCCCCCCCCCCCCCC(=O)O)C(=O)O)C(=O)O)C(=O)O)CC1)C(=O)N[C@@H](Cc1ccncc1)C(=O)N1CCC[C@H]1C(=O)N[C@@H](CCCNC(=N)N)C(=O)NCC(N)=O` [Compound 45, C18DA-gGlu3-Sar15-AEPipAc-Tyr-Phe-NMeLeu-Nle-4Pal-Pro-Arg-Gly-NH2] ({C18 diacid-γGlu-γGlu-γGlu}-[Sar][Sar][Sar][Sar][Sar][Sar][Sar][Sar][Sar][Sar][Sar][Sar][Sar][Sar][Sar][Pipz(1-CH2CO,4-CH2CH2NH)]YF[NMeL][Nle][4Pal]PRG-NH2): the figures for the EC50 on human NMUR2 receptor [1], on human NMUR1 receptor and on human NMUR2 receptor [2] were 0.129 µM, greater than 1 µM and 0.03 µM, respectively.
In the case of `CCCC[C@H](NC(=O)[C@H](CC(C)C)N(C)C(=O)[C@H](Cc1ccccc1)NC(=O)[C@H](Cc1ccc(O)cc1)NC(=O)CN1CCN(CCNC(=O)CN(C)C(=O)CN(C)C(=O)CN(C)C(=O)CN(C)C(=O)CN(C)C(=O)CN(C)C(=O)CN(C)C(=O)CN(C)C(=O)CN(C)C(=O)CN(C)C(=O)CN(C)C(=O)CN(C)C(=O)CN(C)C(=O)CN(C)C(=O)CN(C)C(=O)CC[C@H](NC(=O)CC[C@H](NC(=O)CC[C@H](NC(=O)CCCCCCCCCCCCCCCCC(=O)O)C(=O)O)C(=O)O)C(=O)O)CC1)C(=O)N[C@@H](CCCCN)C(=O)N1CCC[C@H]1C(=O)N[C@@H](CCCNC(=N)N)C(=O)NCC(N)=O` [Compound 46, C18DA-gGlu3-Sar15-AEPipAc-Tyr-Phe-NMeLeu-Nle-Lys-Pro-Arg-Gly-NH2] (HELM PEPTIDE1{[O=C(O)CCCCCCCCCCCCCCCCC(=O)[*:2]].[gGlu].[gGlu].[gGlu].[Sar].[Sar].[Sar].[Sar].[Sar].[Sar].[Sar].[Sar].[Sar].[Sar].[Sar].[Sar].[Sar].[Sar].[Sar].[O=C(CN1CCN(CCN[*:1])CC1)[*:2]].Y.F.[meL].[Nle].K.P.R.G.[am]}$$$$V2.0), the figures for the half-maximal effective concentration (EC50) on human NMUR2 receptor [1], at human NMUR1 receptor and on human NMUR2 receptor [2] were 0.0262 µM, greater than 1 µM and 0.013 µM, respectively.
On to `CCCC[C@H](NC(=O)[C@H](CC(C)C)N(C)C(=O)[C@H](Cc1ccccc1)NC(=O)[C@H](Cc1ccc(O)cc1)NC(=O)CN1CCN(CCNC(=O)CN(C)C(=O)CN(C)C(=O)CN(C)C(=O)CN(C)C(=O)CN(C)C(=O)CN(C)C(=O)CN(C)C(=O)CN(C)C(=O)CN(C)C(=O)CN(C)C(=O)CN(C)C(=O)CN(C)C(=O)CN(C)C(=O)CN(C)C(=O)CN(C)C(=O)CC[C@H](NC(=O)CC[C@H](NC(=O)CC[C@H](NC(=O)CCCCCCCCCCCCCCCCC(=O)O)C(=O)O)C(=O)O)C(=O)O)CC1)C(=O)N[C@@H](CCCCN)C(=O)N(C)[C@@H](C)C(=O)N[C@@H](CCCNC(=N)N)C(=O)NCC(N)=O` [Compound 47, C18DA-gGlu3-Sar15-AEPipAc-Tyr-Phe-NMeLeu-Nle-Lys-NMeAla-Arg-Gly-NH2] (HELM PEPTIDE1{[O=C(O)CCCCCCCCCCCCCCCCC(=O)[*:2]].[gGlu].[gGlu].[gGlu].[Sar].[Sar].[Sar].[Sar].[Sar].[Sar].[Sar].[Sar].[Sar].[Sar].[Sar].[Sar].[Sar].[Sar].[Sar].[O=C(CN1CCN(CCN[*:1])CC1)[*:2]].Y.F.[meL].[Nle].K.[meA].R.G.[am]}$$$$V2.0), for which the EC50 at human NMUR2 receptor [1] was 0.0326 µM; at human NMUR1 receptor, greater than 1 µM; at human NMUR2 receptor [2], 0.0093 µM.
With `CCCC[C@H](NC(=O)[C@H](CC(C)C)N(C)C(=O)[C@H](Cc1ccccc1)NC(=O)[C@H](Cc1ccc(O)cc1)NC(=O)CN1CCN(CCNC(=O)CN(C)C(=O)CN(C)C(=O)CN(C)C(=O)CN(C)C(=O)CN(C)C(=O)CN(C)C(=O)CN(C)C(=O)CN(C)C(=O)CN(C)C(=O)CN(C)C(=O)CN(C)C(=O)CN(C)C(=O)CN(C)C(=O)CN(C)C(=O)CN(C)C(=O)CC[C@H](NC(=O)CC[C@H](NC(=O)CC[C@H](NC(=O)CCCCCCCCCCCCCCCCC(=O)O)C(=O)O)C(=O)O)C(=O)O)CC1)C(=O)N[C@@H](Cc1ccccn1)C(=O)N(C)[C@@H](C)C(=O)N[C@@H](CCCNC(=N)N)C(=O)NCC(N)=O` [Compound 48, C18DA-gGlu3-Sar15-AEPipAc-Tyr-Phe-NMeLeu-Nle-2Pal-NMeAla-Arg-Gly-NH2] ({C18 diacid-γGlu-γGlu-γGlu}-[Sar][Sar][Sar][Sar][Sar][Sar][Sar][Sar][Sar][Sar][Sar][Sar][Sar][Sar][Sar][Pipz(1-CH2CO,4-CH2CH2NH)]YF[NMeL][Nle][2Pal][NMeA]RG-NH2), the EC50 at human NMUR2 receptor [1], on human NMUR1 receptor and at human NMUR2 receptor [2] was greater than 1 µM in each case.
For the compound `CCCC[C@H](NC(=O)[C@H](CC(C)C)N(C)C(=O)[C@H](Cc1ccccc1)NC(=O)[C@H](Cc1ccc(O)cc1)NC(=O)CN1CCN(CCNC(=O)CN(C)C(=O)CN(C)C(=O)CN(C)C(=O)CN(C)C(=O)CN(C)C(=O)CN(C)C(=O)CN(C)C(=O)CN(C)C(=O)CN(C)C(=O)CN(C)C(=O)CN(C)C(=O)CN(C)C(=O)CN(C)C(=O)CN(C)C(=O)CN(C)C(=O)CC[C@H](NC(=O)CC[C@H](NC(=O)CC[C@H](NC(=O)CCCCCCCCCCCCCCCCCCC(=O)O)C(=O)O)C(=O)O)C(=O)O)CC1)C(=O)N[C@@H](CCCCN)C(=O)N1CCC[C@H]1C(=O)N[C@@H](CCCNC(=N)N)C(=O)NCC(N)=O` [Compound 49, C20DA-gGlu3-Sar15-AEPipAc-Tyr-Phe-NMeLeu-Nle-Lys-Pro-Arg-Gly-NH2] (HELM PEPTIDE1{[O=C(O)CCCCCCCCCCCCCCCCCCC(=O)[*:2]].[gGlu].[gGlu].[gGlu].[Sar].[Sar].[Sar].[Sar].[Sar].[Sar].[Sar].[Sar].[Sar].[Sar].[Sar].[Sar].[Sar].[Sar].[Sar].[O=C(CN1CCN(CCN[*:1])CC1)[*:2]].Y.F.[meL].[Nle].K.P.R.G.[am]}$$$$V2.0), the EC50 is 0.0252 µM on human NMUR2 receptor [1], 1.3 µM on human NMUR1 receptor and 0.011 µM on human NMUR2 receptor [2].
